Assay results as given in patent US20240100112A1, “TRADITIONAL CHINESE MEDICINE OINTMENT FOR PREVENTING AND TREATING MASTITIS IN DAIRY COWS, AND PREPARATION METHOD THEREOF” (Hunan University of Science and Engineering, priority 2022, published 2024).

Tested on: mastitis in dairy cows
Test: Treatment of dairy cows with mastitis; cure judged by sodium hydroxide curdled milk test
Type: in vivo
Conditions: dairy cows with mastitis (SMT detected); ointment 2 g externally twice a day for 5 days, or penicillin 100,000 IU breast perfusion; tested one day after stopping
Source text: Fifty dairy cows with mastitis detected by Shanghai Mastitis Test (SMT) are selected from a dairy farm in Hunan Province, of which 20 cows are externally coated with the traditional Chinese medicine ointment for preventing and treating mastitis in dairy cows prepared in embodiment 1 and 20 cows are externally applied with the traditional Chinese medicine ointment for preventing and treating mastitis in dairy cows prepared in comparative example 1, with the dosage of 2 g each time, twice a day for 5 days. The remaining 10 cows are perfused with penicillin 100,000 IU after all the milk is discharged from their breasts, as a control group.
Cure standard: one day after stopping the ointments, if curdled milk is negative by the sodium hydroxide test, the cows are judged to be cured.

Q: Which “Cows (head) with curdled milk being negative by sodium hydroxide test” value does the source give for `CC1(C)S[C@@H]2[C@H](NC(=O)Cc3ccccc3)C(=O)N2[C@H]1C(=O)O` [Control group, penicillin] here?
A: 8 head

Q: And the “Cure rate (%)” value?
A: 80%
